Measurements from paper PMC3759959, “Design, Synthesis and Antiviral Activity Studies of Schizonepetin Derivatives” (International Journal of Molecular Sciences, 2013).
pIC50: −log10 of the molar value. Read-outs that look alike come from different tables or passages of the source.

What was measured:
Vero cells = assay: Cytotoxicity by CPE assay in Vero cells; type: cell-based; conditions: 72 h
Experimental: (§1) The cytotoxicity was evaluated by cytopathic effect (CPE) inhibition assay. Vero cells were seeded into 96-well plates. After cells had been incubated for 24 h at 37 °C in 5% CO2, they were exposed to drugs with two-fold serial dilutions. Untreated Vero cells were used as controls. All cultures were incubated again in 5% CO2 at 37 °C for 72 h. The cells were examined microscopically for the cytotoxicity effects. Then TC50 were calculated by the Reed-Muench method.

HSV-1 virus = assay: Anti HSV-1 CPE inhibition assay in Vero cells; conditions: for pIC50: read-out: IC50, antiviral activity against HSV-1 virus; for antiviral activity against HSV-1 (in words): in vitro
MDCK cells = assay: Cytotoxicity against MDCK cells by CPE assay; type: cell-based
Experimental: as §1
The procedures for Anti-H3N2 studies and cytotoxicity against MDCK cells in vitro by CPE inhibition assay were similar to Anti HSV-1 studies and cytotoxicity against Vero cells.

influenza virus H3N2 = assay: Anti-H3N2 CPE inhibition assay in MDCK cells; conditions: for pIC50: read-out: IC50, antiviral activity against H3N2 virus; for antiviral activity against influenza virus H3N2 (in words): in vitro
H1N1 = conditions: previous study; cited from earlier work
[1] = system: abdominal capillary permeability; conditions: cited from earlier work
[2] = Human alphaherpesvirus 1, Vero, 72 h
[3] = cytotoxicity, Vero cells, Reed-Muench method

| SMILES | TC50 (Antiviral activity against HSV-1 virus section) (Vero cells; African green monkey) | pIC50 (HSV-1 virus; [2]) | TI (TC50/IC50), HSV-1 virus (HSV-1 virus) | TC50 (Antiviral activity against HSV-1 virus section) (Vero cells; [3]) | TC50 (Antiviral activity against H3N2 virus section) (MDCK cells) | pIC50 (influenza virus H3N2; Influenza A virus, H3N2, MDCK) | antiviral activity against HSV-1 (in words) (HSV-1 virus; CPE inhibition) | antiviral activity against influenza virus H3N2 (in words) (influenza virus H3N2; CPE inhibition) | TI (TC50/IC50), H3N2 virus (influenza virus H3N2) | therapeutic effect on the H1N1 infected mice (H1N1) | effect on increase of abdominal capillary permeability by HAc [1] | pIC50 (influenza virus H3N2; CPE inhibition, MDCK cells) | pIC50 (HSV-1 virus; CPE inhibition, Vero cells, 30 TCID50, 72 h) |
| --- | --- | --- | --- | --- | --- | --- | --- | --- | --- | --- | --- | --- | --- |
| Nc1nc2c(ncn2COCCO)c(=O)[nH]1 [Aciclovir, reference compound] | >666.0 µM | 5.31 | >136.4 |  |  |  |  |  |  |  |  |  |  |
| CO[C@@]12C[C@H](C)CCC1=C(C)C(=O)O2 [M1, (6R,7aR)-7a-Methoxy-3,6-Dimethyl-5,6,7,7a-Tetrahydrobenzofuran-2(4H)-One] |  | < 4.94 |  | 366.8 µM | 298.5 µM | < 4.41 |  |  |  |  |  |  |  |
| CCO[C@@]12C[C@H](C)CCC1=C(C)C(=O)O2 [M2, (6R,7aR)-7a-Ethoxy-3,6-Dimethyl-5,6,7,7a-Tetrahydrobenzofuran-2(4H)-One] |  | 4.00 | 2.5 | 246.7 µM | 139.5 µM | < 4.41 | obvious antiviral activity |  |  |  |  |  |  |
| CC(=O)O[C@@]12C[C@H](C)CCC1=C(C)C(=O)O2 [M4, (6R,7aR)-3,6-Dimethyl-2-oxo-2,4,5,6,7,7a-Hexahydrobenzofuran-7a-Yl Acetate] |  | 4.03 | 4.0 | 374.6 µM | 319.2 µM | < 4.41 | obvious antiviral activity |  |  |  |  |  |  |
| CCC(=O)O[C@@]12C[C@H](C)CCC1=C(C)C(=O)O2 [M5, (6R,7aR)-3,6-Dimethyl-2-oxo-2,4,5,6,7,7a-Hexahydrobenzofuran-7a-yl Propionate] |  | 4.57 | 2.5 | 66.0 µM | 39.1 µM | < 4.41 | obvious antiviral activity |  |  |  |  |  |  |
| CC1=C2CC[C@@H](C)C[C@]2(OC(=O)c2ccccc2)OC1=O [M8, (6R,7aS)-3,6-Dimethyl-2-Oxo-2,4,5,6,7,7a-Hexahydrobenzofuran-7a-yl Benzoate] |  | < 4.94 |  | 24.8 µM | 54.2 µM | < 4.41 |  |  |  |  |  |  |  |
| CC1=C2CC[C@@H](C)C[C@]2(OC(=O)c2ccc([N+](=O)[O-])cc2)OC1=O [M9, (6R,7aS)-3,6-Dimethyl-2-Oxo-2,4,5,6,7,7a-Hexahydrobenzofuran-7a-yl 4-Nitrobenzoate] |  | < 4.94 |  | 216.0 µM | 216.0 µM | < 4.41 |  |  |  |  |  |  |  |
| CC1=C2CC[C@@H](C)C[C@]2(OC(=O)c2ccc(I)cc2)OC1=O [M10, (6R,7aS)-3,6-Dimethyl-2-Oxo-2,4,5,6,7,7a-Hexahydrobenzofuran-7a-yl 4-Iodobenzoate] |  | < 4.94 |  | 44.2 µM | 41.3 µM | < 4.41 |  | little effect |  |  |  |  |  |
| CC1=C2CC[C@@H](C)C[C@]2(OC(=O)c2ccc(Cl)cc2)OC1=O [M11, (6R,7aS)-3,6-Dimethyl-2-Oxo-2,4,5,6,7,7a-Hexahydrobenzofuran-7a-yl 4-Chlorobenzoate] |  | < 4.94 |  | 47.1 µM | 47.1 µM | < 4.41 |  | little effect |  |  |  |  |  |
| CC1=C2CC[C@@H](C)C[C@@]2(OC(=O)c2cccnc2)OC1=O [M21, (6R,7aS)-3,6-Dimethyl-2-Oxo-2,4,5,6,7,7a-Hexahydrobenzofuran-7a-yl Nicotinate] |  | < 4.94 |  | 439.0 µM | 180.5 µM | < 4.41 |  |  |  |  |  |  |  |
| CC1=C2CC[C@@H](C)C[C@]2(OC(=O)c2ccc(F)cc2)OC1=O [M22, (6R,7aS)-3,6-Dimethyl-2-Oxo-2,4,5,6,7,7a-Hexahydrobenzofuran-7a-yl 4-Fluorobenzoate] |  | < 4.94 |  | 87.8 µM | 60.5 µM | < 4.41 |  | little effect |  |  |  |  |  |
| CC1=C2CC[C@@H](C)C[C@]2(OC(=O)c2cccc(Cl)c2)OC1=O [M25, (6R,7aS)-3,6-Dimethyl-2-Oxo-2,4,5,6,7,7a-Hexahydrobenzofuran-7a-yl 3-Chlorobenzoate] |  | < 4.94 |  | 11.5 µM | 80.8 µM | < 4.41 |  | little effect |  |  |  |  |  |
| CC1=C2CC[C@@H](C)C[C@@]2(OC(=O)c2cccs2)OC1=O [M27, (6R,7aS)-3,6-Dimethyl-2-Oxo-2,4,5,6,7,7a-Hexahydrobenzofuran-7a-yl Thiophene-2-Carboxylate] |  | < 4.94 |  | 100.3 µM | 177.4 µM | < 4.41 |  |  |  |  |  |  |  |
| CC1=C2CC[C@@H](C)C[C@]2(OC(=O)c2cccc(F)c2)OC1=O [M28, (6R,7aS)-3,6-Dimethyl-2-Oxo-2,4,5,6,7,7a-Hexahydrobenzofuran-7a-yl 3-Fluorobenzoate] |  | < 4.94 |  | 170.4 µM | 96.4 µM | 4.46 |  | high antiviral activity | 2.8 |  |  |  |  |
| CC1=C2CC[C@@H](C)C[C@]2(OC(=O)c2cccc(I)c2)OC1=O [M29, (6R,7aS)-3,6-Dimethyl-2-oxo-2,4,5,6,7,7a-Hexahydrobenzofuran-7a-yl 3-Iodobenzoate] |  | < 4.94 |  | 45.4 µM | 71.1 µM | < 4.41 |  | little effect |  |  |  |  |  |
| CC1=C2CC[C@@H](C)C[C@]2(OC(=O)c2cccc(Br)c2)OC1=O [M31, (6R,7aS)-3,6-Dimethyl-2-Oxo-2,4,5,6,7,7a-Hexahydrobenzofuran-7a-yl 3-Bromobenzoate] |  | < 4.94 |  | 80.3 µM | 80.3 µM | < 4.41 | little effect | little effect |  |  |  |  |  |
| CC1=C2CC[C@@H](C)C[C@]2(OC(=O)c2ccc(Br)cc2)OC1=O [M33, (6R,7aS)-3,6-Dimethyl-2-Oxo-2,4,5,6,7,7a-Hexahydrobenzofuran-7a-yl 4-Bromobenzoate] |  | < 4.94 |  | 80.3 µM | 71.0 µM | 4.86 | little effect | high antiviral activity | 5.2 |  |  |  |  |
| CC1=C2CC[C@@H](C)C[C@@]2(OC(=O)c2ccccc2Br)OC1=O [M34, (6R,7aS)-3,6-Dimethyl-2-Oxo-2,4,5,6,7,7a-Hexahydrobenzofuran-7a-yl 2-Bromobenzoate] |  | 4.77 | 4.7 | 80.3 µM | 71.0 µM | < 4.41 | obvious antiviral activity | little effect |  |  |  |  |  |
| CC1=C2CC[C@@H](C)C[C@@]2(OC(=O)c2ccc(C(F)(F)F)cc2)OC1=O [M35, (6R,7aS)-3,6-Dimethyl-2-Oxo-2,4,5,6,7,7a-Hexahydrobenzofuran-7a-yl 4-(Trifluoromethyl) Benzoate] |  | < 4.94 |  | 82.8 µM | 75.4 µM | 4.53 |  | high antiviral activity | 2.5 |  |  |  |  |
| NC(=O)c1ncn([C@@H]2O[C@H](CO)[C@@H](O)[C@H]2O)n1 [Ribavirin, reference compound] |  |  |  |  |  | 2.99 |  |  |  |  |  |  |  |
| CC1=C2CC[C@@H](C)C[C@@]2(O)OC1=O [Schizonepetin] |  |  |  | 834.2 µM | 829.4 µM |  | low antiviral activity | low antiviral activity |  | obviously positive therapeutic effect | inhibit the increase of abdominal capillary permeability | < 4.41 | < 4.94 |
